Tested on: subjects with idiopathic dilated cardiomyopathy (IDC)
Test: Serial study of subjects with idiopathic dilated cardiomyopathy treated with β-blocking agents or placebo (LVEF / phenotype)
Assay type: in vivo, human
Settings: for phenotype: baseline versus after 6 months of treatment; for left ventricular ejection fraction (LVEF): subjects with baseline IDC, 6-7 month period, change versus baseline
Experimental: Dynamic expression profiling was performed in the intact human heart in 8 subjects with idiopathic dilated cardiomyopathy (IDC), on RNA extracted from RV septal endomyocardial biopsies performed at baseline and after 6 months treatment with β-blocking agents (n=6) or placebo (n=2). Affmetrix™ U95a GeneChips, which contain 12,625 gene sequences/chip, were used for expression profiling.
Endomyocardial biopsies were obtained during a 6-7 month period from eight subjects with baseline idiopathic dilated cardiomyopathy (IDC). Of these subjects, six were treated with the β-blocking agents carvedilol and metoprolol, and two were treated with placebo.
Biopsied samples obtained from these subjects were analyzed by quantitative reverse transcript polymerase chain reaction (QRT PCR), and the mRNAs obtained were further analyzed by Affymetrix Gene chip. Subjects with ideal substantial noise ratios were categorized in the low scaling factor group and those with substantial noise, which compromised quantitation, categorized in the high scaling factor group. Gene expression patterns were further compared between the seven subjects showing improved phenotypes and the one subject showing worsening phenotype. Of the four subjects in the low scaling group showing an improved LVEF, one had received placebo, one carvedilol, and one metoprolol, with the fourth subject treated with placebo showing a decrease LVEF. Of the four subjects in the high scaling group three received carvedilol and one received metoprolol.
Serial measurements of myocardial gene expression were performed on 4 subjects with […], at baseline and after 6 months of treatment with β-blocking agents (n=2, 1 carvediol and 1 metroprolol) or placebo (n=2). RNA was extracted from endomyocardial biopsy material, and expression profiling was performed via Affymetrix U95a GeneChips. […] In the three subjects who improved, a between-subject anaylsis was performed at baseline, and compared to a within-subject comparison between baseline and end of study.

SMILES | phenotype | left ventricular ejection fraction (LVEF)
COCCc1ccc(OCC(O)CNC(C)C)cc1 (stereo not shown) [metoprolol] | improvement in phenotype | improved
COc1ccccc1OCCNCC(O)COc1cccc2[nH]c3ccccc3c12 (stereo not shown) [carvedilol] | improvement in phenotype | improved

— patent US20030096782A1, “Expression profiling in the intact human heart” (The Regents of the University of Colorado, priority 2001, published 2003)
